Where “and” joins values, the source holds several entries; their conditions need not be identical. Identical values can stand only once. Like-named read-outs stand apart in the source and are kept apart here.
Legend:
NgTet1 [1] = molecular target: T1, NgTet1 (Naegleria gruberi, UniProt D2W6T1); assay: AlphaScreen competition assay with biotinylated 5mC dsDNA; assay type: binding; conditions: 100 nM NgTet1, 50 nM 5mC dsDNA
T1 construct: His6-tagged full-length Naegleria gruberi NgTet1 (321 a. a.) protein with a thrombin cleavage site; made in house; host or cells: E. coli BL21(DE3)
T1 sequence (D2W6T1 1-321): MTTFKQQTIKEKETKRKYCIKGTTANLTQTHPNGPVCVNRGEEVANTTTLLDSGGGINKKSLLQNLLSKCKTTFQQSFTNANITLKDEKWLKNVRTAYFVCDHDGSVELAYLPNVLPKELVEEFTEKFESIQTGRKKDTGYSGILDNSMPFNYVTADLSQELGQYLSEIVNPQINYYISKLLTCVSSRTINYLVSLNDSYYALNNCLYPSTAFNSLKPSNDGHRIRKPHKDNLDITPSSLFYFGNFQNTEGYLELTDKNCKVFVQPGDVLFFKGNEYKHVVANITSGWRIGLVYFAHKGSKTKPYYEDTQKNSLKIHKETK
Description: (§1) AlphaScreen™ Histidine (Nickel Chelate) Detection Kit was used to evaluate displacement of […] (^5mC dsDNA)[33],[34]. Competitor DNA oligomers in assay buffer were manually dispensed onto 384-well ProxiPlates (5 μL) in a 2-fold dilution series. His6-tagged NgTet1 or TET2CDΔLCI in assay buffer was added (5 μL), and the mixture was pre-incubated with the competitor DNA at room temperature for 10 min. Cofactors and biotinylated ^5mC dsDNA in assay buffer were added (5 μL), and the mixture was further incubated at room temperature for 10 min. A mixture of AlphaScreen beads (1:62.5 dilution) in assay buffer was added (5 μL), and the full mixture was incubated at room temperature for 1 h. The final mixtures (20 μL) contained 100 nM NgTet1 (50 nM ^5mC dsDNA) or 12.5 nM TET2CDΔLCI (12.5 nM ^5mC dsDNA), 50 μM sodium L-ascorbate, 5 μM (NH4)2Fe(SO4)2, and 5 μM disodium NOG in assay buffer (50 mM HEPES [pH 7.3], 150 mM NaCl, 0.1% v/v BSA, 0.01% v/v Tween® 20). For the assay interference counter screen, His6-tagged TET protein and biotinylated ^5mC dsDNA were replaced with 1.6 nM biotinylated His6 peptide. Chemiluminescence was measured on a PHERAstar FS/FSX (BMG Labtech) equipped with an AlphaScreen 680 570 module. All AlphaScreen bead manipulations were performed under subdued lighting. Inhibition data was normalised to reactions containing no competitor and fitted using “log(inhibitor) vs. response - Variable slope (four parameters)” non-linear regression model on GraphPad Prism 5. […]
(§2) Fig. S5 TETs bind to DNA in a sequence- and modification-independent manner. A binding assay between a biotinylated 5mC dsDNA oligomer and His6-tagged TET was developed using AlphaScreen Histidine (Nickel Chelate) assay. […] Conditions: a 100 nM NgTet1 (50 nM 5mC dsDNA), b 12.5 nM TET2CDΔLCI (12.5 nM 5mC dsDNA), c 1.6 nM biotinylated His6 peptide. Each assay was supplemented with 50 μM sodium L-ascorbate, 5 μM (NH4)2Fe(SO4)2, and 5 μM disodium NOG. Data shown as the mean of three to four experimental replicates (n = 3–4; mean ± SD); tabulated data reported as the mean of two independent replicates (n = 2).

TET2CDΔLCI = molecular target: T2, TET2CDΔLCI (Homo sapiens, UniProt Q6N021); assay: as above; assay type: binding; conditions: 12.5 nM TET2CDΔLCI, 12.5 nM 5mC dsDNA
T2 construct: FLAG-[thrombin cleavage site]-SUMO (N); made in house; host or cells: E. coli
Description: as §1, §2

NgTet1 [2] = molecular target: T1, NgTet1; assay type: biochemical; conditions: for 2OG Concentration / Succinate Concentration: 20 μM 5HC DNA
Description: Double-stranded 12 bp DNA oligomers were added at a final concentration of 20 µM. […]
Double-stranded DNA oligomers were added at a final concentration of 20 µM. […]
All ^1H NMR spectra were recorded at 25 °C using D2O as a reference for internal deuterium lock on a Bruker Avance III 700 MHz equipped with an inverse TCI cryoprobe in 3 or 5 mm diameter tubes with a total sample volume of 160 or 565 μL, respectively. The water signal was reduced using Perfect Echo excitation sculpting suppression. Chemical shifts are reported in ppm relative to D2O (δH = 4.70 ppm).
Spectrometer settings were determined using a control sample containing all reaction components excluding enzyme. TET enzyme was added to an identical sample, and the resulting assay mixture was transferred to an NMR tube before deposition into the instrument. […] Spectrum recordings were carried out consecutively without delay. Data were processed using automated routines on MestReNova v14.2.0; signals of interest were integrated with absolute intensity scaling. ^1H NMR time courses reported in figures are representative results from two or three independent replicates.

## 5HC DNA: non-methylated DNA of the same sequence, 5'-ACC ACC GGT GGT-3', non-substrate (DNA ACCACCGGTGGT; DNA, backbone not given here)
NgTet1 [1]
  IC50: 57.5 µM
NgTet1 [1]; n = 2
  competition pIC50 NgTet1: 4.24
TET2CDΔLCI
  IC50: 8.91 µM
TET2CDΔLCI; n = 2
  competition pIC50 TET2CDΔLCI: 5.05
NgTet1 [2]; time 6.31667 min
  2OG Concentration: 88.5781 µM
  Succinate Concentration: 11.4219 µM
NgTet1 [2]; time 9.38333 min
  2OG Concentration: 79.2717 µM
  Succinate Concentration: 20.7283 µM
NgTet1 [2]; time 12.45 min
  2OG Concentration: 72.6874 µM
  Succinate Concentration: 27.3126 µM
NgTet1 [2]; time 15.5167 min
  2OG Concentration: 67.5286 µM
  Succinate Concentration: 32.4714 µM
NgTet1 [2]; time 18.6 min
  2OG Concentration: 63.1853 µM
  Succinate Concentration: 36.8147 µM
NgTet1 [2]; 20 µM DNA, 100 μM 2OG, 5 μM NgTet1
  V0 NgTet1: 1.30 µM/min
NgTet1 [2]; 2-OG 50 uM, 20 µM DNA
  2-OG turnover rate: 1.2756 µM/min and 1.3302 µM/min
NgTet1 [2]; 2-OG 100 uM, 20 µM DNA
  2-OG turnover rate: 2.0544 µM/min and 2.2614 µM/min
NgTet1 [2]; 2-OG 200 uM, 20 µM DNA
  2-OG turnover rate: 3.7602 µM/min and 3.5166 µM/min
NgTet1 [2]; 2-OG 400 uM, 20 µM DNA
  2-OG turnover rate: 4.4538 µM/min and 4.2732 µM/min
NgTet1 [2]; 2-OG 700 uM, 20 µM DNA
  2-OG turnover rate: 4.9836 µM/min and 5.0838 µM/min
NgTet1 [2]; 2-OG 1000 uM, 20 µM DNA
  2-OG turnover rate: 5.3268 µM/min and 5.3442 µM/min
NgTet1 [2]; 2-OG 2000 uM, 20 µM DNA
  2-OG turnover rate: 5.8116 µM/min and 5.7954 µM/min
NgTet1 [2]; 2-OG 4000 uM, 20 µM DNA
  2-OG turnover rate: 6.75 µM/min and 6.036 µM/min
NgTet1 [2]; n = 1, time (min) 5HC DNA 5.9, AT DNA 5.81667, 5mC DNA 5.78333
  succinate: 7.407 µM
NgTet1 [2]; n = 1, time (min) 5HC DNA 8.98333, AT DNA 8.9, 5mC DNA 8.86667
  succinate: 12.5672 µM
NgTet1 [2]; n = 1, time (min) 5HC DNA 12.0667, AT DNA 11.9833, 5mC DNA 11.95
  succinate: 16.4606 µM
NgTet1 [2]; n = 1, time (min) 5HC DNA 15.1333, AT DNA 15.0667, 5mC DNA 15.0333
  succinate: 19.1176 µM
NgTet1 [2]; n = 1, time (min) 5HC DNA 18.2167, AT DNA 18.1333, 5mC DNA 18.1167
  succinate: 21.6247 µM
NgTet1 [2]; n = 1, time (min) 5HC DNA 21.3667, AT DNA 21.2333, 5mC DNA 21.2
  succinate: 24.6175 µM
NgTet1 [2]; n = 1, time (min) 5HC DNA 24.45, AT DNA 24.3167, 5mC DNA 24.2833
  succinate: 26.0885 µM
NgTet1 [2]; n = 1, time (min) 5HC DNA 27.5333, AT DNA 27.3833, 5mC DNA 27.3667
  succinate: 28.2137 µM
NgTet1 [2]; n = 1, time (min) 5HC DNA 30.6, AT DNA 30.4667, 5mC DNA 30.45
  succinate: 29.4575 µM
NgTet1 [2]; n = 1, time (min) 5HC DNA 33.6833, AT DNA 33.55, 5mC DNA 33.5333
  succinate: 31.2095 µM
NgTet1 [2]; n = 1, time (min) 5HC DNA 36.7667, AT DNA 36.6333, 5mC DNA 36.6167
  succinate: 32.5108 µM
NgTet1 [2]; n = 1, time (min) 5HC DNA 39.85, AT DNA 39.7167, 5mC DNA 39.7
  succinate: 33.8071 µM
NgTet1 [2]; n = 1, time (min) 5HC DNA 42.9333, AT DNA 42.8, 5mC DNA 42.7833
  succinate: 34.7457 µM
NgTet1 [2]; n = 1, time (min) 5HC DNA 46.0167, AT DNA 45.8833, 5mC DNA 45.8667
  succinate: 35.7895 µM
NgTet1 [2]; n = 1, time (min) 5HC DNA 49.0833, AT DNA 48.9667, 5mC DNA 48.95
  succinate: 37.2861 µM
NgTet1 [2]; n = 1, time (min) 5HC DNA 52.1667, AT DNA 52.05, 5mC DNA 52.0333
  succinate: 38.1768 µM
NgTet1 [2]; n = 1, time (min) 5HC DNA 55.25, AT DNA 55.1167, 5mC DNA 55.1167
  succinate: 38.5101 µM
NgTet1 [2]; n = 1, time (min) 5HC DNA 58.3333, AT DNA 58.2, 5mC DNA 58.2
  succinate: 39.4428 µM
NgTet1 [2]; n = 1, time (min) 5HC DNA 61.4, AT DNA 61.2833, 5mC DNA 61.2833
  succinate: 40.1071 µM
NgTet1 [2]; n = 1, time (min) 5HC DNA 64.4833, AT DNA 64.3833, 5mC DNA 64.35
  succinate: 40.323 µM
NgTet1 [2]; n = 2, time (min) 5HC DNA 5.81667, AT DNA 5.61667, 5mC DNA 6.08333
  succinate: 6.9553 µM
NgTet1 [2]; n = 2, time (min) 5HC DNA 8.88333, AT DNA 8.7, 5mC DNA 9.16667
  succinate: 12.0978 µM
NgTet1 [2]; n = 2, time (min) 5HC DNA 12.0333, AT DNA 11.7833, 5mC DNA 12.25
  succinate: 15.5692 µM
NgTet1 [2]; n = 2, time (min) 5HC DNA 15.1167, AT DNA 14.8667, 5mC DNA 15.3167
  succinate: 18.665 µM
NgTet1 [2]; n = 2, time (min) 5HC DNA 18.1833, AT DNA 17.9333, 5mC DNA 18.4
  succinate: 21.5442 µM
NgTet1 [2]; n = 2, time (min) 5HC DNA 21.2667, AT DNA 21.0167, 5mC DNA 21.4833
  succinate: 23.7344 µM
NgTet1 [2]; n = 2, time (min) 5HC DNA 24.35, AT DNA 24.1, 5mC DNA 24.5667
  succinate: 25.3146 µM
NgTet1 [2]; n = 2, time (min) 5HC DNA 27.4333, AT DNA 27.1833, 5mC DNA 27.65
  succinate: 27.7156 µM
NgTet1 [2]; n = 2, time (min) 5HC DNA 30.5167, AT DNA 30.2667, 5mC DNA 30.7333
  succinate: 29.219 µM
NgTet1 [2]; n = 2, time (min) 5HC DNA 33.6, AT DNA 33.35, 5mC DNA 33.8167
  succinate: 30.6366 µM
NgTet1 [2]; n = 2, time (min) 5HC DNA 36.6833, AT DNA 36.4333, 5mC DNA 36.9
  succinate: 31.7592 µM
NgTet1 [2]; n = 2, time (min) 5HC DNA 39.7667, AT DNA 39.5167, 5mC DNA 39.9833
  succinate: 33.6089 µM
NgTet1 [2]; n = 2, time (min) 5HC DNA 42.8333, AT DNA 42.6, 5mC DNA 43.0667
  succinate: 34.5619 µM
NgTet1 [2]; n = 2, time (min) 5HC DNA 45.9167, AT DNA 45.6833, 5mC DNA 46.15
  succinate: 35.6503 µM
NgTet1 [2]; n = 2, time (min) 5HC DNA 49, AT DNA 48.7667, 5mC DNA 49.2333
  succinate: 37.1492 µM
NgTet1 [2]; n = 2, time (min) 5HC DNA 52.0833, AT DNA 51.85, 5mC DNA 52.3167
  succinate: 37.4628 µM
NgTet1 [2]; n = 2, time (min) 5HC DNA 55.1667, AT DNA 54.9333, 5mC DNA 55.4
  succinate: 38.3288 µM
NgTet1 [2]; n = 2, time (min) 5HC DNA 58.25, AT DNA 58.0167, 5mC DNA 58.4833
  succinate: 38.622 µM
NgTet1 [2]; n = 2, time (min) 5HC DNA 61.3333, AT DNA 61.1, 5mC DNA 61.5667
  succinate: 40.1844 µM
NgTet1 [2]; n = 2, time (min) 5HC DNA 64.4167, AT DNA 64.1667, 5mC DNA 64.65
  succinate: 40.2655 µM
NgTet1 [2]; relative to reactions without DNA
  Relative V0 NgTet1: 3.6
NgTet1 [2]; with 20 µM 5HC DNA
  Vmax^app: 6.47 µM/min
  kcat^app: 0.0217 s⁻¹

— paper PMC11662004 (Communications Chemistry, 2024)
